Measurements: patent publication US20240398833A1, “PHARMACEUTICAL COMPOSITION CONTAINING 27-HYDROXYCHOLESTEROL FOR PREVENTING OR TREATING MYELOID LEUKEMIA” (PUSAN NATIONAL UNIVERSITY INDUSTRY-UNIVERSITY COOPERATION …, priority 2021, published 2024)
Entries after “also recorded” stand apart in the source; their conditions may differ.

How the values were obtained:
[1] = system: HL60 cells and K562 cells; assay: Leukemia cell growth comparison, cell count by trypan blue; assay type: cell-based; settings: 6.2 μM, 48 hours; for number of cells in leukemia cell lines: HL60 and K562
Method: An acute myeloid leukemia cell line HL60, and a chronic myeloid leukemia cell line, K562 cells were treated with 6.2 μM of cholesterol, 7α-hydroxycholesterol, and 27-hydroxycholesterol for 48 hours and then strained with trypan blue, and then the cell count was confirmed.

[2] = system: ER stress response pathway; assay: Western blot of ER stress proteins (pIRE1α, IRE1α, PERK, ATF4, elF2α); assay type: cell-based
[3] = system: hematopoietic stem and progenitor cells (HSPC); assay: Reactive oxygen species (DCFDA staining, FACS) in mouse bone marrow cells; assay type: cell-based
Method: (§1) Bone marrow cells were extracted from the mouse tibia and femur and treated with 6.2 μM of 27-hydroxycholesterol for 48 hours. In order to confirm apoptosis, the cells treated with 27-hydroxycholesterol were collected, the cells were dissolved in a 1× Annexin binding buffer, added with Annexin V and 7AAD, and analyzed using FACScanto2 equipment, and in order to confirm reactive oxygen species, the cells were dissolved in an FACS staining buffer, added with DCFDA, stained at 37° C. for 30 minutes, and analyzed using FACScanto2 equipment. As a result, an effect of 27-hydroxycholesterol on increased apoptosis and reactive oxygen species (ROS) in hematopoietic stem and progenitor cells (HSPC) was confirmed and illustrated in FIG. 2 [Con or Ctrl: mouse bone marrow cells untreated, Chol: mouse bone marrow cells treated with cholesterol, 27HC: mouse bone marrow cells treated with 27-hydroxycholesterol].

[4] = system: LKS cells and hematopoietic progenitor cells (HPC); assay: qRT-PCR gene expression in sorted LKS cells and hematopoietic progenitor cells; assay type: cell-based, mouse; settings: 6.2 μM, 48 hours
Method: Bone marrow cells were extracted from the mouse tibia and femur and treated with 6.2 μM of 27-hydroxycholesterol for 48 hours. After treatment, the cells were added with PE-Cy5-CD3, PE-Cy5-CD4, PE-Cy5-CD8, PE-Cy5-CD19, PE-Cy5-B220, PE-Cy5-GR1, PE-Cy5-Ter119, PE-Sca1, APC-Add cKit, PE-Cy7-CD150, and APC-Cy7-CD48 antibodies, stained for 30 minutes at 4° C., and then LKS (Lin-Sca1^+cKit^+) and hematopoietic progenitor cells (Lin^−Sca1^+cKit^+CD48^+) were separated using FACSAria. Thereafter, RNA was extracted from the cells using an RNA extraction kit, and cDNA was synthesized from RNA using a cDNA synthesis kit. The synthesized cDNA was subjected to qRT-PCR using primers related to apoptosis and ER stress and SYBR-green. As a result, it was confirmed that gene expression related to apoptosis and ER stress was increased according to treatment of 27-hydroxycholesterol in LKS and hematopoietic progenitor cells, which were immature cells, compared to total bone marrow cells, as illustrated in FIG. 6.

[5] = system: hematopoietic stem and progenitor cells (HSPC); assay: Apoptosis (Annexin V / 7AAD, FACS) in mouse bone marrow cells; assay type: cell-based; settings: 6.2 μM, 48 hours, compared to control cells
Method: as §1

[6] = system: myeloid leukemia cells (HL60, KG1a, and K562 cells); assay: Leukemia cell count by trypan blue; assay type: cell-based; settings: 6.2 μM, 48 hours; negative control HEK293T cells
Method: (§2) Acute myeloid leukemia cell lines HL60 and KG1 α, and chronic myeloid leukemia cell line, K562 cells were treated with 6.2 μM of 27-hydroxycholesterol for 48 hours and then strained with trypan blue, and then the cell count was confirmed. In addition, the cells were added with Annexin V and 7AAD, and the apoptosis was analyzed using FACScanto2 equipment. As a result, it was confirmed that compared to untreated cells (Con) and a cholesterol-treated leukemia cell line (Chol), 27-hydroxycholesterol increased the apoptosis in a leukemia cell line (27HC) to reduce the number of cells, which was illustrated in FIG. 3 [Con: untreated leukemia cell line, Chol: leukemia cell line treated with cholesterol, 27HC: leukemia cell line treated with 27-hydroxycholesterol].

[7] = system: myeloid leukemia cells (HL60, KG1a, K562 cells); assay: Differentiation marker CD11b staining in leukemia cell lines; assay type: cell-based; settings: compared to control cells
Method: (§3) Next, the apoptosis and the ROS proportions were analyzed through DCFDA staining. In addition, to confirm the effect of 27-Hydroxycholesterol on the differentiation of leukemia cell lines, a differentiation marker, CD11b was stained and analyzed using FACScanto 2 equipment. As a result, it was confirmed that the ROS proportion was high in the leukemia cell line treated with 27-hydroxycholesterol, which was illustrated in FIG. 4 [Con: untreated leukemia cell line, Chol: leukemia cell line treated with cholesterol, 27HC: leukemia cell line treated with 27-hydroxycholesterol].

hematopoietic stem cells = assay: Bone marrow transplantation of ex vivo treated donor CD45.1 bone marrow cells; assay type: in vivo, mouse
Method: Bone marrow cells were taken out ex vivo, treated with 6.2 μM of 27-hydroxycholesterol (27-HC), and then subjected to bone marrow transplantation.
Specifically, referring to FIG. 9A, BM cells were extracted from the tibia and femur of a donor CD45.1 mouse, and then treated with vehicle, 6.2 μM cholesterol, and 6.2 μM 27-hydroxycholesterol for 48 hours. Then, bone marrow transplantation was performed by mixing the bone marrow cells of the CD45.2 mouse in a 1:1 ratio and injecting the mixture into the caudal vein of a recipient CD45.2 mouse that had been irradiated with 4 Gy. One month later, blood was extracted from the veins of the recipient mouse that had received bone marrow transplantation, and the cell proportion of the donor mouse was analyzed. Blood was extracted from the mouse jugular vein and added in 10 mM EDTA to prevent blood coagulation, and added in an ACK lysis buffer to lyse red blood cells. It was confirmed that after attaching CD45.1-APC and CD45.2-FITC antibodies, donor mouse CD45.1 cells were analyzed using FACSCanto2 equipment, and 27-hydroxycholesterol suppressed the regeneration and proliferation of hematopoietic stem cells, as illustrated FIGS. 9A to 9E.

[8] = system: myeloid leukemia cells (HL60, KG1a, K562 cells); assay: Apoptosis (Annexin V / 7AAD, FACS) in leukemia cell lines; assay type: cell-based; settings: 6.2 μM, 48 hours, compared to control cells
Method: as §2

[9] = system: hematopoietic stem and progenitor cells (HSPC); assay type: cell-based, mouse
Method: The bone marrow was extracted from the mouse tibia and femur using an FACS staining buffer (phosphate-buffered saline, 2% FBS, penicillin/streptomycin), and then bone marrow cells were extracted by lysing red blood cells using an ACK lysis buffer and treated with 0.62 μM or 6.2 μM 27-hydroxycholesterol for 24 or 48 hours. After treatment, antibodies were attached and the cells were analyzed using FACSCanto2 equipment. As a result, the effect of 27-hydroxycholesterol on decreased hematopoietic stem and progenitor cells (HSPC) was confirmed, and illustrated in FIGS. 1 and 11 [Con: untreated mouse bone marrow cells, Chol: mouse bone marrow cells treated with cholesterol, 27HC: mouse bone marrow cells treated with 27-hydroxycholesterol].

[10] = system: myeloid leukemia cells (HL60, KG1a, K562 cells); assay: ROS (DCFDA staining) in leukemia cell lines; assay type: cell-based; settings: compared to control cells
Method: as §3

## CC(C)CCC[C@@H](C)[C@H]1CC[C@H]2[C@@H]3[C@H](O)C=C4C[C@@H](O)CC[C@]4(C)[C@H]3CC[C@]12C [7α-hydroxycholesterol, reference compound]
[1]
  effect on chronic myeloid leukemia cells: no effect
  number of cells in leukemia cell lines: did not have a significant effect
[1]; relative to 27-hydroxycholesterol
  effect on acute myeloid leukemia cell lines: weaker effect

## C[C@@H](CO)CCC[C@@H](C)[C@H]1CC[C@H]2[C@@H]3CC=C4C[C@@H](O)CC[C@]4(C)[C@H]3CC[C@]12C [27-hydroxycholesterol]
[2]; HL60 cells, 48 hours
  ER stress (amount of ER stress protein): increased
[2]; THP1 cells, FIG. 5A
  ER stress response pathway: increases
[3]; 6.2 μM, 48 hours, compared to control cells
  ROS in LKS cells, HPC and HSC: increased
[4]; LKS and HPC compared to total bone marrow cells
  gene expression related to apoptosis and ER stress: increased
[4]; LKS cells and HPC
  expression of Bax gene related to apoptosis: increased
  expression of Chop, Ire1α and Xbp1s genes related to ER stress: increased
  expression of Era gene related to cancer cell growth: increased
[5]
  apoptosis in LKS cells, HPC and HSC: increased
[6]
  number of myeloid leukemia cells (cell count): reduce; also recorded: significantly decreased
[7]
  differentiation (CD11b+) of myeloid leukemia cells: increased
[1]; FIG. 8A/8B
  growth of leukemia cells (HL60 cells and K562 cells): inhibited; also recorded: minimal; also recorded: suppressed
[1]
  number of cells in leukemia cell lines: decreased
Hematopoietic stem cells; 6.2 μM, 48 hours ex vivo, after transplantation, FIG. 9C
  proportions of donor monocytes, B cells and T cells in blood of recipient mouse: decreased
Hematopoietic stem cells; 6.2 μM, 48 hours ex vivo, after transplantation, FIG. 9D
  engraftment ability (donor CD45.1 cells) in bone marrow cells: decreased
Hematopoietic stem cells; 6.2 μM, 48 hours ex vivo, after transplantation, FIG. 9E
  proportions of donor LK cells, LKS cells, HPC and HSC in bone marrow cells of recipient mouse: decreased
Hematopoietic stem cells; 6.2 μM, 48 hours ex vivo, one month after transplantation, FIG. 9B
  engraftment ability (donor CD45.1 cells) in blood: decreased
Hematopoietic stem cells; donor BM cells treated ex vivo with 6.2 μM for 48 hours, then transplanted
  regeneration and proliferation of hematopoietic stem cells: suppressed
[8]
  apoptosis of myeloid leukemia cells: increased
[9]
  cytotoxic effect (conclusion of Example 1): cytotoxic effect specifically on hematopoietic stem and progenitor cells
[9]; 0.62 μM, 24 hours, FIG. 11B
  effect on LK, LKS, HPC, HSC, monocytes, neutrophils, B cells, T cells: no effect on all cells
[9]; BM cells treated for 24 hours or 48 hours, FIG. 11A
  number of LK cells, LKS cells, HPC and HSC: decreased
[9]; BM cells treated with 27-hydroxycholesterol, FIG. 1A/1B
  proportions of LKS cells, hematopoietic progenitor cells and hematopoietic stem cells: decreased
[9]; BM cells, FIG. 1C/1D
  proportions of common myeloid, granulocytic macrophage, megakaryocytic erythroid and common lymphocytic progenitor cells: decreased
[9]; BM cells, FIG. 1E/1F
  proportions of monocytes, neutrophils, B cells and T cells: no change
[9]; Example 2, 6.2 μM, 48 hours, compared to control cells, FIG. 2F
  proportions of LKS cells, HPC and HSC: decreased
[9]; FIG. 11C
  cKit+ cells and CD48+ cells: reduces
[10]
  ROS proportion of myeloid leukemia cells: increased and high

## CC(=O)N[C@@H](CS)C(=O)O [N-acetylcysteine, reference compound]
[3]; 27-hydroxycholesterol plus antioxidant NAC, FIG. 2E
  ROS in LKS cells, HPC and HSC treated with 27-hydroxycholesterol, on treating NAC: increased
[9]; 27-hydroxycholesterol plus antioxidant NAC, FIG. 2F
  decreased proportions of LKS cells, HPC and HSC by 27-hydroxycholesterol, on treating NAC: suppressed
